Structures are written as SMILES. Where only a bound is given, the exact number is not on record here.

A word on the IC50: it is the midpoint of a concentration-inhibition curve. As a reminder, the GI50 is the concentration at which growth is held to half of that of the control.

What all share (type): cell-based
Experiment [1] concerns the target T1, HER2 YVMA (Homo sapiens, UniProt P04626, INS775YVMA).
T1 construct: expressed in transfected cells; host or cells: human HEK cells, retroviral transduction, doxycycline-inducible expression
The experiment in a line: pHER2 (ERBB2) YVMA assay: phosphorylation of HER2 YVMA at Tyr1221/1222 in HEK cells (AlphaScreen Surefire). The following applies: doxycycline induced, 4 h with compound. The protocol:
For the assay, HEK HER2 YVMA cells are seeded in MEM medium with 10% FBS. 4 hours prior to compound addition, HER2 YVMA expression is induced using 1 μg/mL Doxycycline. […] Subsequently, 60.000 cells/well in 60 μL are added. Cells are incubated with compound for 4 h at 37° C. […] The mixture is incubated at a temperature of 20-25° C. with shaking (700 rpm) for 20 min. After centrifugation, 4 μL of the lysate are transferred to Proxiplates. […] Plates are shaken for 1 min (1400 rpm) and incubated for 2 h at a temperature of 20-25° C. in the dark. […] Plates are shaken for 1 min (1400 rpm) and incubated for 2 h at a temperature of 20-25° C. in the dark. Plates are subsequently analyzed using an Envision reader platform. […] IC50 values are computed from these values in the MEGASTAR IC50 application using a 4 parametric logistic model. […] The results of the assay are provided as IC50 values.
For orientation: Bead proximity is the source of the signal in Alpha formats.

Experiment [2] relates to Ba/F3 cells expressing EGFR WT. The experiment in a line: Ba/F3 proliferation assay, EGFR WT (EGF dependent), CellTiter-Glo. The following applies: Mus musculus, BaF3, EGF instead of IL-3, 72 h, read-out: GI50 BAF3 EGF dep. The protocol:
(§1) Ba/F3 Cell Model Generation and Proliferation Assays
(§2) Plasmids containing HER2 mutants and EGFR WT were obtained from GeneScript. To generate EGFR/HER2-dependent Ba/F3 models, Ba/F3 cells are transduced with retroviruses containing vectors that harbor EGFR WT, HER2 WT or HER2 mutants (YVMA). Platinum-E cells (Cell Biolabs) are used for retrovirus packaging. Retrovirus is added to Ba/F3 cells. To ensure infection, 4 μg/mL polybrene is added and cells are spin-infected. Infection efficiency is confirmed by measuring GFP-positive cells using a cell analyzer. Cells with an infection efficiency of 10% to 20% are further cultivated and puromycin selection with 1 μg/mL is initiated. As a control, parental Ba/F3 cells are used to assess the selection status. Selection is considered successful when parental Ba/F3 cells cultures die. To evaluate the transforming potential of HER2 mutations, the growth medium is no longer supplemented with IL-3. Ba/F3 cells harboring the empty vector are used as a control. A switch from IL-3 to EGF is performed for Ba/F3 cells expressing EGFR WT known for its dependency on EGF ligand. Approximately ten days before conducting the experiments, puromycin is left out. For proliferation assays (data in tables 10 and 12), Ba/F3 cells are seeded into 96-well plates at 5×10^3 cells/100 μL in growth media. Compounds are added by using a HP D3000 Digital Dispenser. All treatments are performed in technical triplicates. Treated cells are incubated for 72 h at 37° C. with 5% CO2. A CellTiter-Glo® Luminescent Cell Viability Assay (Promega) is performed and chemoluminescence is measured by using the multilabel Plate Reader VICTOR X4. The raw data are imported into and analyzed with the Boehringer Ingelheim proprietary software MegaLab (curve fitting based on the program PRISM, GraphPad Inc.).

Experiment [3] deals with EGFR WT dependent A431 cells. The experiment in a line: Tumor cell line proliferation assay, EGFR WT dependent A431 cells, CellTiter-Glo. The following applies: Homo sapiens, A-431, 72 h, read-out: GI50 A431 EGFR wt amp. Here is the method:
(§3) For proliferation assays, NCI-H2170 (HER2 wild type), NCI-H2170 HER2 YVMA and EGFR WT dependent A431 cells are used. NCI-H2170 HER2 YVMA or NCI-H2170 cells are seeded into 96-well plates at 750 cells/60 μL in growth media (RPMI ATCC+10% FCS, +Penicillin/Streptomycin). […] Compounds are added by using a HP D3000 Digital Dispenser one day after plating the cells. All treatments are performed in technical triplicates. Treated cells are incubated for 72 h at 37° C. with 5% CO2. CellTiter-Glo® Luminescent Cell Viability Assay (Promega) is performed and chemoluminescence is measured by using the multilabel Plate Reader VICTOR X4. The raw data are imported into and analyzed with the Boehringer Ingelheim proprietary software MegaLab (curve fitting based on the program PRISM, GraphPad Inc.).

Experiment [4] relates to Ba/F3 cells HER2 WT. The experiment in a line: Ba/F3 proliferation assay, HER2 WT, CellTiter-Glo. The following applies: Mus musculus, BaF3, 72 h. Here is the method:
as §1, §2

Experiment [5] deals with NCI-H2170 HER2 YVMA cells. As to the kind of experiment: Tumor cell line proliferation assay, NCI-H2170 HER2 YVMA, CellTiter-Glo. Conditions: Homo sapiens, 72 h, read-out: GI50 NCI H-2170 HER2 YVMA.
Text: HER2 YVMA Tumor Cell Line Model Generation and Proliferation Assays
Homology-directed genome engineering is employed to insert a 12 nucleotide sequence encoding YVMA into Exon 20 of the genomic HER2 locus in NCI-H2170 cells. […] The DNA template containing the HER2 exon 20 YVMA insertion variant was obtained from GenScript. PCR followed by Sanger sequencing is used to confirm the presence of the 12-nucleotide insertion in HER2 Exon 20 resulting in the YVMA amino acid duplication.
as §3
On the technique in general: In ATP-based viability assays light output follows the ATP content of the culture.

For experiment [6], the system named is NCI-H2170 (HER2 wild type) cells. The experiment in a line: Tumor cell line proliferation assay, NCI-H2170 (HER2 wild type), CellTiter-Glo. The following applies: Homo sapiens, 72 h, read-out: GI50 NCI H-2170 HER2 wt amp. Here is the method: as §3
Experiment [7] has as its system Ba/F3 cells HER2 mutants (YVMA). As to the kind of experiment: Ba/F3 proliferation assay, HER2 YVMA, CellTiter-Glo. The following applies: Mus musculus, BaF3, 72 h. Here is the method:
as §1, §2

Experiment [8] concerns the target T2, EGFR wild type (WT) (Homo sapiens, UniProt P00533).
T2 construct: expressed in transfected cells; host or cells: human HEK cells (ATCC CRL-1573), retroviral transduction
The experiment in a line: pEGFR assay: phosphorylation of EGFR at Tyr1068 in HEK cells expressing EGFR WT (AlphaScreen Surefire). Conditions: 4 h with compound. The protocol:
This assay quantifies the phosphorylation of EGFR at Tyr1068 and is used to measure the inhibitory effect of compounds on the transgenic EGFR wild type (WT) protein expressed in HEK cells.
Transduced cells are selected using puromycin. p-EGFR Tyr1068 is determined using the AlphaScreen Surefire pEGF Receptor (Tyr1068) Assay (PerkinElmer, TGRERS). For the assay, HEK EGFR WT cells are seeded in MEM medium with 10% FBS. […] Subsequently, 60.000 cells/well in 60 μL are added. Cells are incubated with compound for 4 h at 37° C. […] The mixture is incubated at a temperature of 20-25° C. with shaking (700 rpm) for 20 min. After centrifugation, 4 μL of the lysate are transferred to Proxiplates. […] Plates are shaken for 1 min (1400 rpm) and incubated for 2 h at a temperature of (20-25° C.) in the dark. […] Plates are shaken for 1 min (1400 rpm) and incubated for 2 h at a temperature of (20-25° C.) in the dark. Plates are subsequently analyzed using an Envision reader platform. […] IC50 values are computed from these values in the MEGASTAR IC50 application using a 4 parametric logistic model.
This cellular phospho-EGFR (pEGFR) compound dose-response assay quantifies the phosphorylation of EGFR at Tyr1068 in HEK cells expressing EGFR WT. The results of the assay are provided as IC50 values.

T2 sequence (P00533 25-1210): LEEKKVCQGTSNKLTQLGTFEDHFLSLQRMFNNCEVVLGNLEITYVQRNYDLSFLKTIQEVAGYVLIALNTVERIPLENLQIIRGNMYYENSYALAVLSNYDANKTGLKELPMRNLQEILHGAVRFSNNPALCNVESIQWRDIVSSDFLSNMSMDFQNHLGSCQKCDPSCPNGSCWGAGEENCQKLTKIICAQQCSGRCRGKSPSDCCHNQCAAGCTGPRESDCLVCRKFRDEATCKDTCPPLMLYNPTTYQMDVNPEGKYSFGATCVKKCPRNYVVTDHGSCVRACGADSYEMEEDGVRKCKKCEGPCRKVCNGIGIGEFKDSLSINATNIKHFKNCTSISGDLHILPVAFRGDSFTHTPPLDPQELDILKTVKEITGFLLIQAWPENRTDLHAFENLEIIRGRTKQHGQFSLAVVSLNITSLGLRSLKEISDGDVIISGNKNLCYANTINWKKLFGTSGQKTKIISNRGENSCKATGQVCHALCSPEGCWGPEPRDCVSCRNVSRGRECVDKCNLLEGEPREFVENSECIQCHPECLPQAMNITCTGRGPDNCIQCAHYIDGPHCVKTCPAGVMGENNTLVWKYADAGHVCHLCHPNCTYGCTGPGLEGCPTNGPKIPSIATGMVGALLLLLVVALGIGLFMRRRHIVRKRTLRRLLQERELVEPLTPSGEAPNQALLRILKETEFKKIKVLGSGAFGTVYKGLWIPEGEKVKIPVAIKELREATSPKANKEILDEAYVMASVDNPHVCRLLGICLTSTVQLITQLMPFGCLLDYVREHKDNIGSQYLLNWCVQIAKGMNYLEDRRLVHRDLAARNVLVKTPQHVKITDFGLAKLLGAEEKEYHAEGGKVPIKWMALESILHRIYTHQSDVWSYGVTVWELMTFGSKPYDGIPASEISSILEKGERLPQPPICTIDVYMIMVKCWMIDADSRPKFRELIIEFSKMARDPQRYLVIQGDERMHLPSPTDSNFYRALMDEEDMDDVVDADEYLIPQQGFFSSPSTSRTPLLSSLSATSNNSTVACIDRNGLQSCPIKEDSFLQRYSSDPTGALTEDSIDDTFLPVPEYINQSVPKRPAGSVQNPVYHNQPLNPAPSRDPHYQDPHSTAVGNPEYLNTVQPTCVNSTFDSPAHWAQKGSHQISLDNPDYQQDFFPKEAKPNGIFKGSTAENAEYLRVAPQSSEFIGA
T1 sequence (P04626 with tags, fused parts or gaps INS775YVMA): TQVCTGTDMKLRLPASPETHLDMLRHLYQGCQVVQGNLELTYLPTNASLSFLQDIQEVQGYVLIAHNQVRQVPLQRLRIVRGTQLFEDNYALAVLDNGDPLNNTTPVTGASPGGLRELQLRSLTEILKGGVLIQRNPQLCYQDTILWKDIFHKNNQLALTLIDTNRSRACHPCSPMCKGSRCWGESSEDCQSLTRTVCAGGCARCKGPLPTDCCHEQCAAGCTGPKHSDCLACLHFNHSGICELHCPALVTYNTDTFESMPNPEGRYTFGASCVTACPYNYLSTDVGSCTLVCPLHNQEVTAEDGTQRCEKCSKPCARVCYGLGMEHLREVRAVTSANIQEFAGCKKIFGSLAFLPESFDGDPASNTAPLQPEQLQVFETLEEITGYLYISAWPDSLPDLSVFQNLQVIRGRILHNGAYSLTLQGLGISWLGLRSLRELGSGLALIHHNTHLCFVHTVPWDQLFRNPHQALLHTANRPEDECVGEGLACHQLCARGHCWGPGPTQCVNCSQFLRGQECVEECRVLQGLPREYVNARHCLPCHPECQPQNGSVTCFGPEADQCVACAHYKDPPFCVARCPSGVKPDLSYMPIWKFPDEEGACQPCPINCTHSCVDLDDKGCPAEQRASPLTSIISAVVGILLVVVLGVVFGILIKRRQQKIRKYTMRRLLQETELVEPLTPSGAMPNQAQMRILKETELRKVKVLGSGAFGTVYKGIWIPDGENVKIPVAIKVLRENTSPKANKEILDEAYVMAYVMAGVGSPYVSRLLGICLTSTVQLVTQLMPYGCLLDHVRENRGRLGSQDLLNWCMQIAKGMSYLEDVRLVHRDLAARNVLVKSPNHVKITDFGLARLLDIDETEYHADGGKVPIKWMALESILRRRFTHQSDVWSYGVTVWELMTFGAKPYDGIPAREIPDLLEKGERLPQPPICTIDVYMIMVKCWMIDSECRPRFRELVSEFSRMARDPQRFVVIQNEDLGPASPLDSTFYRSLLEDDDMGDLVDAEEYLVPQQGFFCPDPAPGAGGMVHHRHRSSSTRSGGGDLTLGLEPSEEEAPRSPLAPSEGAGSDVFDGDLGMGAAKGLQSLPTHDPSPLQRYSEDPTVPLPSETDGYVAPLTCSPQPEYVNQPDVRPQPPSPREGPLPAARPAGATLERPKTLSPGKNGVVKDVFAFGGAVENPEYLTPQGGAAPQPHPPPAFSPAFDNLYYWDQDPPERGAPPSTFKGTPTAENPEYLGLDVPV

Take `C=CC(=O)N1CC[C@H](Nc2ncc3ncnc(Nc4ccc(Oc5ccn6ncnc6c5)c(C)c4)c3n2)C1` [Example I-17]: the IC50 in experiment [1] worked out at 2 nM; in experiment [8], 94 nM. Besides, the GI50 in experiment [2] is 1100 nM; in experiment [3], above 2000 nM; in experiment [4] it was 2 nM; in experiment [5], 39 nM; in experiment [6], 9 nM; in experiment [7], 14 nM.

For `C=CC(=O)NC1CN(c2ncc3ncnc(Nc4ccc(Oc5ccc6c(c5)ncn6C)c(Cl)c4)c3n2)C1` [Example I-08], the figures for the IC50 in experiment [1] and in experiment [8] were 58 nM and 336 nM, respectively. Moreover, the GI50 in experiment [2] amounted to 2300 nM; in experiment [3], 1500 nM; in experiment [4] it was 2 nM; in experiment [5], 44 nM; in experiment [6], 8 nM; in experiment [7] it was 36 nM.

Turning to `C=CC(=O)NC1CCN(c2ncc3ncnc(Nc4ccc(Oc5ccc6c(c5)ncn6C)c(OC)c4)c3n2)CC1` [Example I-03], the values for the IC50 in experiment [1] and in experiment [8] were 20 nM and 916 nM, respectively. Further, the GI50 is above 5000 nM in experiment [2]; above 5000 nM in experiment [3]; 2 nM in experiment [4]; 139 nM in experiment [5]; 11 nM in experiment [6]; 38 nM in experiment [7].

For the molecule `C=CC(=O)NC1CCN(c2ncc3ncnc(Nc4ccc(Oc5ccc6c(c5)ncn6C)c(C)c4)c3n2)CC1` [Example I-01], the IC50 in experiment [1] came to 13 nM. The 50% growth inhibitory concentration (GI50) in experiment [2] is 1540 nM; in experiment [3] it was above 5000 nM; in experiment [4], 1 nM; in experiment [5], 33 nM; in experiment [6] it was 6 nM; in experiment [7], 16 nM.

In the case of `C=CC(=O)NC1CCN(c2ncc3ncnc(Nc4ccc(Oc5ccn6ccnc6c5)c(C)c4)c3n2)CC1` [Example I-12], the IC50 in experiment [1] amounted to 16 nM; in experiment [8] it was 230 nM. Besides, the GI50 in experiment [2] was 1750 nM; in experiment [3], above 5000 nM; in experiment [4], 2 nM; in experiment [5] it was 71 nM; in experiment [6] it was 8 nM; in experiment [7], 18 nM.

Consider `C=CC(=O)NC1CN(c2ncc3ncnc(Nc4ccc(Oc5cnc6c(c5)ncn6C)c(C)c4)c3n2)C1` [Example I-13], for which the IC50 in experiment [1] was 28 nM; in experiment [8] it was 429 nM. In addition, the GI50 in experiment [2] was above 2000 nM; in experiment [3], above 5000 nM; in experiment [4], 1 nM; in experiment [5], 82 nM; in experiment [6], 19 nM; in experiment [7], 32 nM.

On to `C=CC(=O)N1CCC[C@@H](n2nc(-c3ccc(Oc4ccccc4)cc3)c3c(N)ncnc32)C1` [Ibrutinib, reference compound], for which the GI50 in experiment [2] was found to be 70 nM; in experiment [3], 199 nM; in experiment [5] it was 132 nM; in experiment [6], 16 nM; in experiment [7], 44 nM.

Consider `C=CC(=O)N1CC(Nc2ncc3ncnc(Nc4ccc(Oc5ccn6ncnc6c5)c(C)c4)c3n2)C1` [Example I-19], for which the IC50 in experiment [1] came out at 8 nM; in experiment [8], 41 nM. Besides, the GI50 in experiment [2] came out at 206 nM; in experiment [3] it was 752 nM; in experiment [4], 2 nM; in experiment [5] it was 34 nM; in experiment [6] it was 8 nM; in experiment [7], 11 nM.

For the molecule `CCOc1cc2ncc(C#N)c(Nc3ccc(OCc4ccccn4)c(Cl)c3)c2cc1NC(=O)/C=C/CN(C)C` [Neratinib, reference compound], the GI50 in experiment [2] was found to be 14 nM; in experiment [3] it was 55 nM; in experiment [5], 37 nM; in experiment [6] it was 3 nM; in experiment [7] it was 5 nM.

For the molecule `C=CC(=O)N1CC[C@@H](Nc2ncc3ncnc(Nc4ccc(Oc5ccn6ncnc6c5)c(C)c4)c3n2)C1` [Example I-18], the IC50 in experiment [1] was found to be 4 nM; in experiment [8], 137 nM. Further, the GI50 in experiment [2] is 3270 nM; in experiment [3], above 2000 nM; in experiment [5] it was 87 nM; in experiment [6] it was 10 nM; in experiment [7] it was 29 nM.

Take `C=CC(=O)N1CCC(Oc2cc3c(Nc4ccc(Cl)c(Cl)c4F)ncnc3cc2OC)CC1` [Poziotinib, reference compound]: the half-maximal inhibitory concentration (IC50) in experiment [1] amounted to 5 nM. For the same molecule, the GI50 stood at 1 nM in experiment [2]; 1 nM in experiment [3]; 1 nM in experiment [4]; 5 nM in experiment [5]; 1 nM in experiment [6]; 2 nM in experiment [7].

Take `C=CC(=O)Nc1ccc2ncnc(Nc3ccc(OCc4cccc(F)c4)c(Cl)c3)c2c1` [Allitinib, reference compound]: the 50% inhibitory concentration (IC50) in experiment [1] came out at 3 nM; in experiment [8], 1 nM. For the same molecule, the GI50 stood at 31 nM in experiment [2]; 403 nM in experiment [3]; 203 nM in experiment [5]; 36 nM in experiment [6]; 17 nM in experiment [7].

With `C=CC(=O)Nc1ccc2ncnc(Nc3ccc(Oc4ccc5c(c4)ncn5C)c(C)c3)c2c1` [WO 2007/059257 Ex. 185, reference compound], the IC50 in experiment [1] amounted to 33 nM; in experiment [8] it was 317 nM. In addition, the GI50 in experiment [2] was 1190 nM; in experiment [3], above 5000 nM; in experiment [5], 926 nM; in experiment [6], 108 nM; in experiment [7] it was 60 nM.

Values taken from US11608343B2, “Substituted pyrimido[5,4-d]pyrimidines as HER2 inhibitors” (Boehringer Ingelheim International GmbH, priority 2020, dated 2023).
